Results published in patent US20160177324A1, “NOVEL PROTEIN AND GENE RELATED TO FLAVONOID O-METHYLTRANSFERASE (FOMT) AND THEIR USES THEREFORE” (INSTITUTE OF BOTANY, THE CHINESE ACADEMY OF SCIENCES, priority 2013, published 2016).
Like-named read-outs stand apart in the source and are kept apart here.

What was measured:
PsFOMT [1] = experiment: In vitro enzyme assay and kinetics of recombinant PsFOMT with flavonoid substrates; type: biochemical, Paeonia suffruticosa cv. 'Gunpohden'; parameters: key to Vmax / Kcat × 10 / Kcat/Km / Specific Activity: —: no product detected; conditions: for Kcat × 10 / Kcat/Km / Specific Activity / Vmax: purified recombinant PsFOMT, 200 μM SAM, 1 mM MgCl2, pH 7.5, 35° C., means (SE) of triplicate assays; for catalytical efficiency of PsFOMT fusion protein for substrate / methylation of substrate by PsFOMT: in the presence of SAM
Text: Full length FOMTs were amplified by primers SEQ No.7 & 8 in which restriction enzyme NdeI and BamHI site were introduced to the 5'-end and 3'-end, respectively. The DNA fragment of interest was ligated into the […]3 vector, and then the recombinant plasmid was transducted into DH5a. The FOMT cDNAs were sequenced to verify that no mutation occurred. The recombinant plasmid was isolated and digested with Ndel and BamHI. Subsequently, the fragment was ligated to the NdeI and BamHI excised expression vector pMAL-[…] with a MBP tag to yield pMAL-PsFOMT and pMAL-PtFOMT (FIG. 3). The correct construction tested by sequencing was introduced into E. coli strain BL21. E. coli harboring pMAL-PsFOMT and pMAL-PtFOMT were cultivated in 2 mL LB liquid medium containing glucose, supplemented by 100 μg/mL ampicillin until OD600 reached 0.4-0.5. After addition of isopropyl β-D-thiogalactopyranoside (IPTG) to a final concentration of 0.1 mM, the cells were further cultured at 16° C. for 20 h. Harvest the cells by centrifugation and discard the supernatant. The cells were resuspended in column buffer (20 mM Tris-HCl, 200 mM NaCl 1 mM EDTA, 10 mM β-mercaptoethanol, pH 7.4), and disrupted by sonication in an ice-water bath (Lan, T., et al., Extensive functional diversification of the Populus glutathione S-transferase supergene family. Plant Cell, 2009. 21(12): p. 3749-3766.). In each case, the homogenate was then subjected to centrifugation at 10,000 g for 10 min at 4° C. The resultant particulate material and a small portion of the supernatant were analyzed by SDS-PAGE. The rest of the supernatant was loaded onto an amylose resin column (NEB) that had been pre-equilibrated with column buffer. The overexpressed fusion protein bound to the column was eluted with column buffer plus 10 mM maltose. The concentration of purified fusion protein was detected by UV absorbance at 280 nm. As a control, BL21 cells transformed with an empty pMAL-[…] vector were assayed. The purified protein was stored at -80° C. mixed with 10% glycerol. The reaction system was according to Hugueney et al. with some modification (Hugueney, P., et al., A novel cation-dependent O-methyltransferase involved in anthocyanin methylation in grapevine. Plant Physiology, 2009. 150(4): p. 2057-2070.). Purified recombinant FOMT (2 μg) was assayed in a final volume of 200 μL containing 200 μM SAM, 1 mM MgCl2, 14 mM β-mercaptoethanol, 100 mM Tris, pH 7.5, and 20 μM flavonoid substrates. Incubation was performed at 35° C. and stopped with 200 μL methanol containing 2% formic acid. […] Reaction product was analyzed by a Dionex HPLC system (Sunnyvale, Calif.), equipped with a P680 HPLC pump, an UltiMate 3000 autosampler, a TCC-100 thermostated column compartment and a Dionex PDA100 photodiode array detector. The analytical column was C18 column of ODS 80Ts QA (150 mm×4.6 mm, 5 μm i.d., Tosoh, Tokyo) protected with a C18 guard cartridge (Shanghai ANPEL Scientific Instrument, Shanghai). The following solvent and gradient were used: A, 10% aqueous formic acid; B, methanol; constant gradient from 10 to 36% B within 15 min and back to 10% B in 3 min; the flow rate was 0.8 mL min^-1; Column temperature was maintained at 35° C.; 20 μL of analyte was injected. Chromatograms were obtained at 525 nm for anthocyanins and 350 nm for other flavonoids, and photodiode array spectra were recorded from 200 to 800 nm. Km and Vmax values were calculated from Lineweaver-Burk plots.

PsFOMT [2] = experiment: as above; type: biochemical, Paeonia suffruticosa cv. 'Gunpohden'; parameters: key: —: no product detected; conditions: purified recombinant PsFOMT, 200 μM SAM, 1 mM MgCl2, pH 7.5, 35° C., substrate 5 to 200 μM, means (SE) of triplicate assays
PtFOMT = experiment: In vitro enzymatic activity of recombinant PtFOMT with potential substrates; type: biochemical, Paeonia tenuifolia; conditions: purified recombinant PtFOMT; means ± SE of triplicate assays
Text: Full length FOMTs were amplified by primers SEQ No.7 & 8 in which restriction enzyme NdeI and BamHI site were introduced to the 5′-end and 3′-end, respectively. The DNA fragment of interest was ligated into the pEASY-T3 vector, and then the recombinant plasmid was transducted into DH5a. The FOMT cDNAs were sequenced to verify that no mutation occurred. The recombinant plasmid was isolated and digested with Ndel and BamHI. Subsequently, the fragment was ligated to the NdeI and BamHI excised expression vector pMAL-c5X with a MBP tag to yield pMAL-PsFOMT and pMAL-PtFOMT (FIG. 3). The correct construction tested by sequencing was introduced into E. coli strain BL21. E. coli harboring pMAL-PsFOMT and pMAL-PtFOMT were cultivated in 2 mL LB liquid medium containing glucose, supplemented by 100 μg/mL ampicillin until OD600 reached 0.4-0.5. After addition of isopropyl β-D-thiogalactopyranoside (IPTG) to a final concentration of 0.1 mM, the cells were further cultured at 16° C. for 20 h. Harvest the cells by centrifugation and discard the supernatant. The cells were resuspended in column buffer (20 mM Tris-HCl, 200 mM NaCl 1 mM EDTA, 10 mM β-mercaptoethanol, pH 7.4), and disrupted by sonication in an ice-water bath (Lan, T., et al., Extensive functional diversification of the Populus glutathione S-transferase supergene family. Plant Cell, 2009. 21(12): p. 3749-3766.). In each case, the homogenate was then subjected to centrifugation at 10,000 g for 10 min at 4° C. The resultant particulate material and a small portion of the supernatant were analyzed by SDS-PAGE. The rest of the supernatant was loaded onto an amylose resin column (NEB) that had been pre-equilibrated with column buffer. The overexpressed fusion protein bound to the column was eluted with column buffer plus 10 mM maltose. The concentration of purified fusion protein was detected by UV absorbance at 280 nm. As a control, BL21 cells transformed with an empty pMAL-c5X vector were assayed. The purified protein was stored at −80° C. mixed with 10% glycerol.
The reaction system was according to Hugueney et al. with some modification (Hugueney, P., et al., A novel cation-dependent O-methyltransferase involved in anthocyanin methylation in grapevine. Plant Physiology, 2009. 150(4): p. 2057-2070.). Purified recombinant FOMT (2 μg) was assayed in a final volume of 200 μL containing 200 μM SAM, 1 mM MgCl2, 14 mM β-mercaptoethanol, 100 mM Tris, pH 7.5, and 20 μM flavonoid substrates. Incubation was performed at 35° C. and stopped with 200 μL methanol containing 2% formic acid. For enzyme kinetic studies, purified FOMT was incubated based on the above condition with the exception that a range of substrate concentrations from 5 to 200 μM were used for Km determination. Reaction product was analyzed by a Dionex HPLC system (Sunnyvale, Calif.), equipped with a P680 HPLC pump, an UltiMate 3000 autosampler, a TCC-100 thermostated column compartment and a Dionex PDA100 photodiode array detector. The analytical column was C18 column of ODS 80Ts QA (150 mm×4.6 mm, 5 μm i.d., Tosoh, Tokyo) protected with a C18 guard cartridge (Shanghai ANPEL Scientific Instrument, Shanghai). […] Chromatograms were obtained at 525 nm for anthocyanins and 350 nm for other flavonoids, and photodiode array spectra were recorded from 200 to 800 nm. Km and Vmax values were calculated from Lineweaver-Burk plots.

[3] = test system: cyanidin 3-glucoside 3′-O-methyltransferase (CGMT); conditions: partially purified from Vitis vinifera cell suspension; Bailly et al. 1997; cited from earlier work

Row | Structure (SMILES) | Kcat × 10 (PsFOMT [1]) | Kcat/Km (PsFOMT [1]) | Specific Activity (PsFOMT [1]) | Vmax (PsFOMT [1]) | Km (PsFOMT [2]) | catalytical efficiency of PsFOMT fusion protein for substrate (PsFOMT [1]) | Specific Activity (PtFOMT) [pkat mg^−1] | Km (PsFOMT [2]; read-out: Km) [µM] | methylation of substrate by PsFOMT (PsFOMT [1]) | activity of CGMT with substrate [3]
1 | OC[C@H]1O[C@@H](Oc2cc3c(O)cc(O)cc3[o+]c2-c2ccc(O)cc2)[C@H](O)[C@@H](O)[C@@H]1O [Pelargonidin 3-O-glucoside] | — | — | — | — | — |  |  |  |  | 
2 | OC[C@H]1O[C@@H](Oc2cc3c(O)cc(O)cc3[o+]c2-c2ccc(O)c(O)c2)[C@H](O)[C@@H](O)[C@@H]1O [Cyanidin 3-O-glucoside] | 161.99 (0.73) s^−1 |  | 2314 (11) pkat mg^−1 | 11.57 (0.05) nM s^−1 |  | high catalytical efficiency | 37.98 ± 1.05 | 1.76 |  | 
3 | O=c1c(O)c(-c2ccc(O)c(O)c2)oc2cc(O)cc(O)c12 [Quercetin] | 9.83 (0.12) s^−1 |  | 142 (2) pkat mg^−1 | 1.77 (0.02) nM s^−1 |  |  | 17.58 ± 0.57 | 4.33 | can be methylated | 
4 | O=C(O)/C=C/c1ccc(O)c(O)c1 [Caffeic acid] | — | — | — | — | — |  |  |  |  | 
5 | O=C1C[C@@H](c2ccc(O)cc2)Oc2cc(O)cc(O)c21 [Naringenin] | — | — | — | — | — |  |  |  |  | 
6 | O=c1c(O)c(-c2ccc(O)cc2)oc2cc(O)cc(O)c12 [Kaempferol] | — | — | — | — | — |  |  |  |  | 
7 | O=c1cc(-c2ccc(O)c(O)c2)oc2cc(O)cc(O)c12 [Luteolin] | — | — | — | — | — |  |  |  |  | 
8 | OC[C@H]1O[C@@H](Oc2cc3c(O)cc(O)cc3[o+]c2-c2ccc(O)c(O)c2)[C@H](O)[C@@H](O)[C@H]1O [Cyanidin 3-O-galactoside] | 217.90 (36.48) s^−1 |  | 3138 (525) pkat mg^−1 | 39.22 (6.57) nM s^−1 |  |  |  | 31.7 | can be methylated | 
9 | C[C@@H]1O[C@@H](OC[C@H]2O[C@@H](Oc3c(-c4ccc(O)c(O)c4)oc4cc(O)cc(O)c4c3=O)[C@H](O)[C@@H](O)[C@@H]2O)[C@H](O)[C@H](O)[C@H]1O [Quercetin 3-O-rutinoside] | 192.11 (4.41) s^−1 |  | 2744 (135) pkat mg^−1 | 27.44 (1.63) nM s^−1 |  |  | 30.20 ± 0.24 | 12.3 | can be methylated | 
10 | O=C(/C=C/c1ccc(O)cc1)OC[C@H]1O[C@@H](Oc2cc3c(O)cc(=O)cc-3oc2-c2ccc(O)c(O)c2)[C@H](O)[C@@H](O)[C@@H]1O [cyanidin 3-p-coumaroyl glucoside] |  |  |  |  |  |  |  |  |  | no activity
11 | OC[C@H]1O[C@@H](Oc2cc3c(O[C@@H]4O[C@H](CO)[C@@H](O)[C@H](O)[C@H]4O)cc(O)cc3[o+]c2-c2ccc(O)c(O)c2)[C@H](O)[C@@H](O)[C@@H]1O [Cyanidin 3,5-di-O-glucoside] | 127.70 (1.05) s^−1 |  | 1788 (15) pkat mg^−1 | 17.88 (0.25) nM s^−1 |  | high catalytical efficiency | 29.60 ± 3.47 | 1.06 |  | 
12 | OC[C@H]1O[C@@H](Oc2cc3c(O)cc(O)cc3[o+]c2-c2cc(O)c(O)c(O)c2)[C@H](O)[C@@H](O)[C@@H]1O [Delphinidin 3-O-glucoside] | 94.72 (1.49) s^−1 |  | 1364 (21) pkat mg^−1 | 17.05 (0.27) nM s^−1 |  |  | 21.50 ± 0.10 | 4.11 | sequentially methylate 3′- and 5′-OH at B ring | 
